The nature of data set [1]: metabolic stability against liver microsomes. Conditions: 4 h at 37 °C, LC–MS/MS. It counts as in vitro ADME. On the technique in general: Liver microsomes are vesicles of endoplasmic reticulum, rich in cytochrome P450 enzymes.
Data set [2] in a line: metabolic stability against liver microsomes. In kind it is in vitro ADME. The following applies: 4 h at 37 °C, LC–MS/MS. This is another data set of the same source.
Data set [3] is described as follows: metabolic stability against liver microsomes. It counts as in vitro ADME, mouse. The following applies: murine microsomes, 4 h at 37 °C, LC–MS/MS.
Another data set concerns M. tuberculosis H37Rv. Conditions: cited from earlier work.
Another data set has as its system M. tuberculosis Erdman. The following applies: cited from earlier work.

The text below walks through data of article PMC5445929 (Journal of fluorine chemistry, 2016).

Read-outs that look alike come from different tables or passages of the source.

Consider “2-cyclohexyl-5-dimethylamino-6-(4-trifluorimethoxy)benzamido-1,3-benzoxazole [Compound 12]”, for which, in data set [1], the “% metabolic clearance human” value came out at 56%. The “% metabolic clearance rat” value in data set [2] is listed as 22%. For the same compound, the “% metabolic clearance mouse” value in data set [3] stood at 71%. Moreover, in the data set on M. tuberculosis H37Rv, the “MIC (μg/mL) H37Rv” value was 6.25 µg/mL.

On to `NNC(=O)c1ccncc1` [INH, isoniazid], for which, in the data set on M. tuberculosis Erdman (route IP), the “log10 CFU Spleen” value is recorded as 0 ± 0 n = 5 log10 CFU, the “Δ log10 CFU Lungs (test vs control group means)” value is −6.57 log10 CFU and the “Δ log10 CFU Spleen (test vs control group means)” value is −4.96 log10 CFU. For the same compound, in the data set with M. tuberculosis Erdman (route PO), the “log10 CFU Spleen” value is on record as 0 ± 0 n = 5 log10 CFU, the “Δ log10 CFU Lungs (test vs control group means)” value was −6.31 log10 CFU and the “Δ log10 CFU Spleen (test vs control group means)” value is reported as −3.89 log10 CFU. The “log10 CFU Lungs” value with M. tuberculosis Erdman (route PO, test compounds 50 mg/kg b.i.d., day 5-15 post infection) was 0 ± 0 n = 5 log10 CFU.
